From publication PMC8319603, “Developing C2-Aroyl Indoles as Novel Inhibitors of IDO1 and Understanding Their Mechanism of Inhibition via Mass Spectroscopy, QM/MM Calculations and Molecular Dynamics Simulation” (Frontiers in Chemistry, 2021) come the findings set out here.

As usually defined, the logD is lipophilicity at a set pH, counting ionised and neutral species. The term Papp denotes the rate of passage across a membrane or cell layer, normalised by area and donor concentration.

The nature of data set [1]: Log D determination (octanol/buffer). It is filed as physicochemical. The note with it: phosphate buffer at pH 7.4. An excerpt: (§1) For the DMPK studies of the compound 8a-d we used rat as well as human plasmas. Rat plasma was purchased from Hylasco Biotechnology Pvt. Ltd.™ Hyderabad, India. We have not performed any in vivo experiments for this manuscript neither for animals nor for humans. […] Also please note the blood plasma was obtained from the blood of Dr Srinivas R Maddi, who donated it and is the co-author of this article. The DMPK studies were supplemented by kinetic solubility, Log p and Log D determinations, PAMPA permeability, Metabolic and Plasma stability in rat and human, and finally the plasma folding in rat and human. A thorough discussion of each step is mentioned in the supplementary information.
20 µL of IDO1/TDO2 protein (1µg/ml concentration) was added and incubates for 10 min. After that 20 µL of 2 mM L-tryptophan was added and then treated with different test compounds concentration (10 µM, 5 µM, 1 µM, 500 nM, 250 nM). The plate was then sealed well for 2hr incubation process at 37°C. […] The 100 µL of supernatant was transferred in fresh 96 well plate and treated with 100 µL of freshly prepared 2% Ehlrich reagent which was then analyzed by absorbance plate reader at 492 nm to measure the extent of kynurenine formation. […] The IC50 values were calculated in triplicate by using GraphPadPrism Software (GraphPadPrism. Version 5.01 program).22, 23 […]
Log P determination: The partition coefficient was determined by adding compounds to 2 mL deep well plate containing Octanol/water mixture and vortexed the plate for 2 hours at 1200 rpm on a plate shaker. […] Octanol and buffer layers were analysed by HPLC -UV by adjusting the needle height for each Octanol and buffer and the amount of compound distributed i nto each phase was calculated
Log D determination: The distribution coefficient was determined by adding compounds to 2 mL deep well plate containing Octanol/Buffer mixture and vortexed the plate for 2 hours at 1200 rpm on a plate shaker. […]
adjusting the needle height for each Octanol and buffer and the amount of compound distributed into each phase was calculated. […]

The next data set is described as follows: PAMPA permeability. It is filed as in vitro ADME. The settings on record: for Papp at 5 h, 100 µM: phosphate buffer at pH 7.4.
From the text: as §1, with “information. […]” for “information.”
PAMPA permeability: PAMPA permeability was determined by addition of the compounds to the donor wells at 100µM concentration in a total volume of 300µL in triplicates. The acceptor wells were filled with 200µL of phosphate buffered saline, pH 7.4, while maintaining 5% DMSO concentration on both sides. The plates were sandwiched and incubated for 5hours at room temperature. After incubation, 150µL of the sample from both donor and receiver wells was collected and centrifuged at […]
4000rpm for 20 minutes. […]
In general terms: The PAMPA barrier holds no transporters, so it reflects passive diffusion.

Data set [2] is described as follows: Plasma protein binding in human plasma (rapid equilibrium dialysis). It is filed as in vitro ADME. The settings on record: pH 7.4, human plasma.
From the text: as §1, with “information. […]” for “information.”
Plasma protein binding in rat and human plasma: To evaluate the ability of compound to bind the plasma proteins, the most common approach of plasma protein binding using rapid equilibrium dialysis device ( RED inserts) used. Compounds were tested at a final concentration of 10 μM in mouse, rat and human plasma. An aliquot of 500 μL plasma containing compound 3k was added in first half (plasma side) of the well of RED device. An aliquot of 300 μL of 100 mM sodium phosphate buffer pH 7.4 was added in the second half (buffer side) of the Insert. The plate containing plasma and […]
(In equilibrium dialysis only unbound substance equilibrates across the membrane.)

Data set [3] can be described thus: Metabolic stability in rat liver microsomes. It is filed as in vitro ADME. The note with it: for Clearance in animal microsomes: animal microsomal data among rat, dog and monkey; for Rat liver microsomal stability % QH (hepatic extraction ratio): rat liver microsomes. As to the method: Metabolic stability in mouse, rat and human liver microsomes: Metabolic stability was defined as the percentage of parent compound lost over time in the presence of a metabolically active test system.
The incubation mixtures consisted of liver microsomes 1.0 mg microsomal protein /mL , compound 1 uM or positive control verapamil, 1 uM . The reactions were initiated by adding 1 mM NADPH.
Reactions without NADPH at 0 and 60 min were also incubated to rule out non-NADPH metabolism or chemical instability in the incubation buffer. All reactions were terminated using 200 uL of ice-cold acetonitrile containing internal standard 200 ng/mL of telmisartan at 0, 5, 15, 30 and 60 min. The vials were centrifuged at 4000 rpm for 20 min. The supernatants thus obtained were analyzed on LC-MS/MS to monitor the disappearance of compound. […]
In general terms: Microsomes from liver hold many membrane-bound enzymes, among them those of drug oxidation.

Setting [4] is: 10 μM, read-out: Human plasma protein binding %Ge bound (converted).
[5] abbreviates: 10 μM, read-out: Human plasma protein binding %Ge free.
Where [6] appears, read: read-out: Fraction unbound in human plasma.

Read-outs that look alike come from different tables or passages of the source.

Take `COC(=O)NCCc1c(C(=O)c2ccccc2)[nH]c2ccccc12` [8e]: the logD in data set [1] came out at 2.95. Moreover, in “PAMPA permeability”, the “Permeability” value is “very good” and the Papp at 5 h, 100 µM came out at 32.3 ×10⁻⁶ cm/s. Further, the fraction unbound at 10 μM in data set [2] (setting [4]) is 0.0213. Also, the fraction unbound at 10 μM in data set [2] (setting [5]) is 0.0213. Also, the fraction unbound at 10 μM in data set [2] (setting [6]) came out at 0.021. In data set [3], the “Clearance in animal microsomes” value is “low to moderate clearance” and the “Rat liver microsomal stability % QH (hepatic extraction ratio)” value turned out to be 14.9%.

On to `CC(=O)NCCc1c(C(=O)c2ccc([N+](=O)[O-])cc2)[nH]c2ccccc12` [8d], for which, in data set [1], the logD is 1.51. For the same molecule, in the data set “PAMPA permeability”, the “Permeability” value is given as “very good” and the apparent permeability coefficient (Papp) at 5 h, 100 µM is 15.4 ×10⁻⁶ cm/s. Further, in data set [2] (setting [4]), the fraction unbound at 10 μM is 0.0952. Also, the fraction unbound at 10 μM in data set [2] (setting [5]) turned out to be 0.0952. For the same molecule, the fraction unbound at 10 μM in data set [2] (setting [6]) came to 0.095. Besides, in data set [3], the “Clearance in animal microsomes” value is listed as “low to moderate clearance” and the “Rat liver microsomal stability % QH (hepatic extraction ratio)” value was 2.2%.

In data set [1], `CC(=O)NCCc1c(C(=O)c2cc(C(F)(F)F)cc(C(F)(F)F)c2)[nH]c2ccccc12` [8a] returned a logD of 1.32. Also, in the data set “PAMPA permeability”, the “Permeability” value is reported as “very good”. Further, the Papp at 5 h, 100 µM in the data set “PAMPA permeability” was determined as 6.8 ×10⁻⁶ cm/s. The fraction unbound at 10 μM in data set [2] (setting [4]), in data set [2] (setting [5]) and in data set [2] (setting [6]) was 0.0064 each time. The “Rat liver microsomal stability % QH (hepatic extraction ratio)” value in data set [3] turned out to be 12.6%.
